Source: patent US20220135591A1, “HETEROCYCLIC COMPOUNDS AS INHIBITORS OF MONOACYLGLYCEROL LIPASE (MAGL)” (Hoffmann-La Roche Inc., priority 2019, published 2022)

Each compound was assayed against T1, MAGL (recombinant wild-type) (Homo sapiens, UniProt Q99685) (assay: 4-NPA assay: MAGL inhibitory activity by hydrolysis of 4-nitrophenylacetate, absorbance at 405 nm). Details: 4-NPA assay (values without footnote [b]).
T1 sequence (Q99685 1-303): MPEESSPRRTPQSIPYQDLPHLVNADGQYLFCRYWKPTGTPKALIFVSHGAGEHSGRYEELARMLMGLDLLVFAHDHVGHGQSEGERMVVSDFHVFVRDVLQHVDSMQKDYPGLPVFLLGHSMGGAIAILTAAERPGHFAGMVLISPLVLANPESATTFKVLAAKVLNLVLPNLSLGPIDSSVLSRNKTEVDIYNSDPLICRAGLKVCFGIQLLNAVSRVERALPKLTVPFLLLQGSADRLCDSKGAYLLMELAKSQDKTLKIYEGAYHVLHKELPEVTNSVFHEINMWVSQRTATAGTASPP
Type: biochemical
Procedure: Compounds were profiled for MAGL inhibitory activity by measuring the enzymatic activity of MAGL by following the hydrolysis of 4-nitrophenylacetate resulting in 4-nitrophenol, which absorbs at 405-412 nm (G. G. Muccioli, G. Labar, D. M. Lambert, Chem. Bio. Chem. 2008, 9, 2704-2710). This assay is hereinafter abbreviated “4-NPA assay”.
The assay was carried out in 384 well assay plates (black with clear bottom, non-binding surface treated, Corning Ref. 3655) in a total volume of 40 μL. Compound dilutions were made in 100% DMSO (VWR Chemicals 23500.297) in a polypropylene plate in 3-fold dilution steps to give a final concentration range in the assay from 25 μM to 1.7 nM. 1 μL compound dilutions (100% DMSO) were added to 19 μL MAGL (recombinant wild-type) in assay buffer (50 mM TRIS (GIBCO, 15567-027), 1 mM EDTA (Fluka, 03690-100 mL)). The plate was shaked for 1 min at 2000 rpm (Variomag Teleshake) and then incubated for 15 min at RT. To start the reaction, 20 μL 4-Nitrophenlyacetate (Sigma N-8130) in assay buffer with 6% EtOH was added. The final concentrations in the assay were 1 nM MAGL and 300 μM 4-Nitrophenylacetate. After shaking (1 min, 2000 rpm) and 5 min incubation at RT, the absorbance at 405 nm was measured for a first time (Molecular Devices, SpectraMax Paradigm). A second measurement was then done after incubation for 80 min at RT. From the two measurements, the slope was calculated by subtracting the first from the second measurement.

IC50 [µM]	SMILES
0.005	CC(C)(C)c1cnn(-c2ccc(C(=O)N3CCN(c4nc5nc(Cl)ccc5o4)CC3)cc2)c1 [Example 52, [4-(4-tert-butylpyrazol-1-yl)phenyl]-[4-(5-chlorooxazolo[4,5-b]pyridin-2-yl)piperazin-1-yl]methanone]
0.012	Cc1ccc2oc(N3CCN(C(=O)c4ccc(-n5cc(C(C)(C)C)cn5)cc4)CC3)nc2n1 [Example 53, [4-(4-tert-butylpyrazol-1-yl)phenyl]-[4-(5-methyloxazolo[4,5-b]pyridin-2-yl)piperazin-1-yl]methanone]
0.006	Cc1ccc2oc(N3CCN(C(=O)c4ccc(-c5cnn(CC(C)(C)C)c5)cc4)CC3)nc2n1 [Example 54, [4-[1-(2,2-dimethylpropyl)pyrazol-4-yl]phenyl]-[4-(5-methyloxazolo[4,5-b]pyridin-2-yl)piperazin-1-yl]methanone]
0.063	Cc1ccc2oc(N3CCN(C(=O)c4ccc(-n5cnc(C(C)(C)C)c5)cc4)CC3)nc2n1 [Example 55, [4-(4-tert-butylimidazol-1-yl)phenyl]-[4-(5-methyloxazolo[4,5-b]pyridin-2-yl)piperazin-1-yl]methanone]
0.011	Cc1ccc2oc(N3CCN(C(=O)c4ccc(-c5noc(C(C)(C)C)n5)c(C)c4)CC3)nc2n1 [Example 56, [4-(5-tert-butyl-1,2,4-oxadiazol-3-yl)-3-methyl-phenyl]-[4-(5-methyloxazolo[4,5-b]pyridin-2-yl)piperazin-1-yl]methanone]
0.005	Cc1cc(C(=O)N2CCN(c3nc4nc(Cl)ccc4o3)CC2)ccc1-c1noc(C(C)(C)C)n1 [Example 57, [4-(5-tert-butyl-1,2,4-oxadiazol-3-yl)-3-methyl-phenyl]-[4-(5-chlorooxazolo[4,5-b]pyridin-2-yl)piperazin-1-yl]methanone]
0.043	Cc1ccc2oc(N3CCN(C(=O)c4ccc(-c5noc(C(C)(C)C)n5)c(F)c4)CC3)nc2n1 [Example 58, [4-(5-tert-butyl-1,2,4-oxadiazol-3-yl)-3-fluoro-phenyl]-[4-(5-methyloxazolo[4,5-b]pyridin-2-yl)piperazin-1-yl]methanone]
0.015	CC(C)(C)c1nc(-c2ccc(C(=O)N3CCN(c4nc5nc(Cl)ccc5o4)CC3)cc2F)no1 [Example 59, [4-(5-tert-butyl-1,2,4-oxadiazol-3-yl)-3-fluoro-phenyl]-[4-(5-chlorooxazolo[4,5-b]pyridin-2-yl)piperazin-1-yl]methanone]
0.046	CC1(COc2ccc(C(=O)N3CCN(c4nc5nc(Cl)ccc5o4)CC3)cc2Cl)CC1 [Example 60, [3-chloro-4-[(1-methylcyclopropyl)methoxy]phenyl]-[4-(5-chlorooxazolo[4,5-b]pyridin-2-yl)piperazin-1-yl]methanone]
0.272	CC(C)(C)c1nc(-c2ccc(C(=O)N3CCN(c4nc5nc(Cl)ccc5o4)CC3)cn2)no1 [Example 61, [6-(5-tert-butyl-1,2,4-oxadiazol-3-yl)-3-pyridyl]-[4-(5-chlorooxazolo[4,5-b]pyridin-2-yl)piperazin-1-yl]methanone]
0.871	Cc1ccc2oc(N3CCN(C(=O)c4ccc(-c5noc(C(C)(C)C)n5)nc4)CC3)nc2n1 [Example 62, [6-(5-tert-butyl-1,2,4-oxadiazol-3-yl)-3-pyridyl]-[4-(5-methyloxazolo[4,5-b]pyridin-2-yl)piperazin-1-yl]methanone]
0.02	CC(C)(C)c1cn(-c2ccc(C(=O)N3CCN(c4nc5nc(Cl)ccc5o4)CC3)cc2)cn1 [Example 63, [4-(4-tert-butylimidazol-1-yl)phenyl]-[4-(5-chlorooxazolo[4,5-b]pyridin-2-yl)piperazin-1-yl]methanone]
0.005	Cc1cc(C(=O)N2CCN(c3nc4nc(Cl)ccc4o3)CC2)ccc1OCC(C)(C)C [Example 64, [4-(5-chlorooxazolo[4,5-b]pyridin-2-yl)piperazin-1-yl]-[4-(2,2-dimethylpropoxy)-3-methyl-phenyl]methanone]
0.011	Cc1ccc2oc(N3CCN(C(=O)c4ccc(OCC(C)(C)C)c(C)c4)CC3)nc2n1 [Example 65, [4-(2,2-dimethylpropoxy)-3-methyl-phenyl]-[4-(5-methyloxazolo[4,5-b]pyridin-2-yl)piperazin-1-yl]methanone]
0.087	Cc1ccc2oc(N3CCN(C(=O)c4ccc(OCC5(C)CC5)c(Cl)c4)CC3)nc2n1 [Example 66, [3-chloro-4-[(1-methylcyclopropyl)methoxy]phenyl]-[4-(5-methyloxazolo[4,5-b]pyridin-2-yl)piperazin-1-yl]methanone]
0.367	Cc1ccc2oc(N3CCN(C(=O)c4ccc(C5(C)COC5)cc4)CC3)nc2n1 [Example 67, (4-(5-methyloxazolo[4,5-b]pyridin-2-yl)piperazin-1-yl)(4-(3-methyloxetan-3-yl)phenyl)methanone]
4.18	Cc1ccc2oc(N3CCN(C(=O)c4ccc(C5(F)CC5)cc4)CC3)nc2n1 [Example 68, (4-(1-fluorocyclopropyl)phenyl)(4-(5-methyloxazolo[4,5-b]pyridin-2-yl)piperazin-1-yl)methanone]
0.108	CC1(COc2ccc(C(=O)N3CCN(c4nc5nc(Cl)ccc5o4)CC3)cc2F)CC1 [Example 69, [4-(5-chlorooxazolo[4,5-b]pyridin-2-yl)piperazin-1-yl]-[3-fluoro-4-[(1-methylcyclopropyl)methoxy]phenyl]methanone]
0.043	Cc1ccc2oc(N3CCN(C(=O)c4ccc(-n5cnc(C(C)(C)C)n5)cc4)CC3)nc2n1 [Example 70, [4-(3-tert-butyl-1,2,4-triazol-1-yl)phenyl]-[4-(5-methyloxazolo[4,5-b]pyridin-2-yl)piperazin-1-yl]methanone]
0.382	Cc1ccc2oc(N3CCN(C(=O)c4ccc(OCC5(C)CC5)c(F)c4)CC3)nc2n1 [Example 71, [3-fluoro-4-[(1-methylcyclopropyl)methoxy]phenyl]-[4-(5-methyloxazolo[4,5-b]pyridin-2-yl)piperazin-1-yl]methanone]
0.027	CC(C)(C)c1ncn(-c2ccc(C(=O)N3CCN(c4nc5nc(Cl)ccc5o4)CC3)cc2)n1 [Example 72, [4-(3-tert-butyl-1,2,4-triazol-1-yl)phenyl]-[4-(5-chlorooxazolo[4,5-b]pyridin-2-yl)piperazin-1-yl]methanone]
0.409	Cn1c(CC(C)(C)C)nnc1-c1ccc(C(=O)N2CCN(c3nc4nc(Cl)ccc4o3)CC2)cc1 [Example 73, [4-(5-chlorooxazolo[4,5-b]pyridin-2-yl)piperazin--yl]-[4-[5-(2,2-dimethylpropyl)-4-methyl-1,2,4-triazol-3-yl]phenyl]methanone]
0.106	Cc1ccc2oc(N3CCN(C(=O)c4cnc(OCC5(C)CC5)c(C)c4)CC3)nc2n1 [Example 142, (5-methyl-6-((1-methylcyclopropyl)methoxy)pyridin-3-yl)(4-(5-methyloxazolo[4,5-b]pyridin-2-yl)piperazin-1-yl)methanone]
0.077	Cc1ccc2oc(N3CCN(C(=O)c4cnc(OCC5(C(F)(F)F)CC5)c(C)c4)CC3)nc2n1 [Example 143, (5-methyl-6-((1-(trifluoromethyl)cyclopropyl)methoxy)pyridin-3-yl)(4-(5-methyloxazolo[4,5-b]pyridin-2-yl)piperazin-1-yl)methanone]
0.105	O=C(c1cnc(OCC2(C(F)(F)F)CC2)c(F)c1)N1CCN(c2nc3nc(Cl)ccc3o2)CC1 [Example 144, (4-(5-chlorooxazolo[4,5-b]pyridin-2-yl)piperazin-1-yl)(5-fluoro-6-((1-(trifluoromethyl)cyclopropyl)methoxy)pyridin-3-yl)methanone]
0.216	CC1(COc2ncc(C(=O)N3CCN(c4nc5nc(Cl)ccc5o4)CC3)cc2F)CC1 [Example 145, (4-(5-chlorooxazolo[4,5-b]pyridin-2-yl)piperazin-1-yl)(5-fluoro-6-((1-methylcyclopropyl)methoxy)pyridin-3-yl)methanone]
0.135	Cc1ccc2oc(N3CCN(C(=O)c4cnc(OCC5(C)CC5)c(Cl)c4)CC3)nc2n1 [Example 146, (5-chloro-6-((1-methylcyclopropyl)methoxy)pyridin-3-yl)(4-(5-methyloxazolo[4,5-b]pyridin-2-yl)piperazin-1-yl)methanone]
0.128	Cc1ccc2oc(N3CCN(C(=O)c4cnc(OCC5(C(F)(F)F)CC5)c(Cl)c4)CC3)nc2n1 [Example 147, (5-chloro-6-((1-(trifluoromethyl)cyclopropyl)methoxy)pyridin-3-yl)(4-(5-methyloxazolo[4,5-b]pyridin-2-yl)piperazin-1-yl)methanone]
